The target in assay [1] is T1, sarcoplasmic reticulum calcium ion-ATPase (Canis lupus familiaris, UniProt O46674).
T1 construct: their hearts were isolated and the myocardium in post-ischemic region and non-ischemic region the left ventricles were collected; from tissue; host or cells: dog left-ventricle myocardium (post-ischemic and non-ischemic regions), sarcoplasmic reticulum fraction
Kind of assay: Sarcoplasmic reticulum calcium ion-ATPase activity of myocardium fractions. The format is biochemical, dog.

For assay [2], the system named is hippocampus CA1 pyramidal cells. Kind of assay: Action on delayed neuronal cell death in rat (10-minute forebrain ischemia). The format is in vivo. As for the experimental part: (§1) Bilateral vertebral arteries of Wister male rats weighing 250 to 300 g were electrically cauterized before 24 hours from ischemic induction to prepare rats showing no neurological symptom such as hemiplegia. Only vertebral arteries of rats were cauterized to prepare rats as sham operation group. Before 30 minutes from ischemic induction, 0.1 mg/kg-b.w. or 1 mg/kg-b.w. of 5-methyl-2-(1-piperazinyl)benzenesulfonic acid monohydrate suspended in distilled water was administered orally to the rat of drug administration group and the equivalent dose of distilled water was administered to the rat of control group.
Ischemia was inducted by 10-minutes' bilateral occlusion of the common carotid arteries under ether anesthesia. […] During ischemia and after recirculation, until recovery of righting reflex, the rats were put on the heating mat to maintain their body temperature. After 72 hours from recirculation, the brain of the rat was fixed by perfusion with a fixative, FAM (formalin:acetic acid:methanol ▭1:1:8). After that, it was embedded by paraffin and a 5 μm thick slice of the forebrain was prepared in an usual manner Haematoxylin stain was conducted and the number of hippocampus CA1 pyramidal cells were counted to obtain the number of the cells per mm (neuronal density). The number of hippocampus CA1 pyramidal cells in sham operation group was 166.0±6.7. After 10 minutes ischemia induction, the number of hippocampus CA1 pyramidal cells in control group (distilled water administration group) was 31.2±13.3 and about 80% of total neuronal cells were led into degeneration and necrosis. The number of hippocampus CA1 pyramidal cells in 0.1 and 1 mg/kg 5-methyl-2-(1-piperazinyl)benzenesulfonic acid monohydrate oral administration group was 74.3±16.0 and 104.1±21.9, respectively. Both of them inhibited neuronal cell death dose-dependently and there is a significant difference between 1 mg/kg administration group and the control group.
The action on delayed neuronal cell death in rat was observed by the same method as Example 1 except for intravenously administering 0.03 mg/kg-b.w. or 0.3 mg/kg-b.w. of 5-n-propyl-2-(1-piperazinyl)benzenesulfonic acid suspended in distilled water instead of 5-methyl-2-(1-piperazinyl)benzenesulfonic acid monohydrate as a drug.

Assay [3] can be described thus: Action on disturbance of passive avoidance behavior in rat (5-minute ischemia). It counts as in vivo. As for the experimental part:
as §1, with “cauterized before 48 hours from” for “cauterized before 24 hours from”, “control group. The experiment was conducted by using the apparatus consisting of the bright room (50×50×50 cm) with 100 W lamp and the dark room (20×14×20 cm). The rat electrically cauterized bilateral vertebral arteries was put in the bright room to count the transit time to the dark room. The transit time was identified the reaction latency in the acquisition trial.” for “control group.”
The guillotine door was closed when the rat entered into the dark room and the rat was given electrical shock (2.9 mA, 5 seconds) from the floor grid to finish the acquisition trial.
Ischemia was inducted by 5-minutes' bilateral occlusion of the common carotid arteries under ether anesthesia. […] During ischemia and after recirculation, until recovery of righting reflex, the rats were put on the heating mat to maintain their body temperature. After 48 hours from recirculation, the retention trial was conducted. As the same manner as the acquisition trial, the rat put in the bright room had been observed for at most 300 seconds to count the transit time to the dark room (the reaction latency).
The action on disturbance of passive avoidance in rat was observed by the same method as Example 1 except for intravenously administering 0.03 mg/kg-b.w. or 0.3 mg/kg-b.w. of 5-n-propyl-2-(1-piperazinyl)benzenesulfonic acid suspended in distilled water instead of 5-methyl-2-(1-piperazinyl)benzenesulfonic acid monohydrate as a drug.

Assay [4] has as its system ischemic/reperfused myocardium. Kind of assay: Regional cardiac function (% SS) in ischemic/reperfused myocardium in dogs. It counts as in vivo, dog. The settings on record: 3 μg/kg i.v. 5 minutes before reperfusion; 30-min LAD occlusion, 1 h reperfusion. As for the experimental part: The chest of mongrel dogs (adults, male and female) was opened under anesthesia with pentobarbital (30 mg/kg, i.v.) and a portion of the left coronary anterior descending (LAD) was dissected. A catheter-tip-pressure transducer (Millar; MPC-500) was inserted from the left carotid artery into the left ventricle to determine the left ventricular pressure and its first differential value (dP/dt). A pair of crystal probes were mounted in the LAD region to determine changes in regional segment length. Diastolic segment length (EDL; threshold point of dP/dt) and systolic segment length (ESL; dP/dt(−) max point) were determined from the waveform of dP/dt, and the regional segment shortening (% SS) in the ischemic/reperfused myocardium was calculated as follows: % SS=(EDL−ESL)/[…]×100
After hemodynamic stability is established following operation, the dissected portion of LAD was occluded for 30 minutes and then reperfused for 1 hour. At the same time, the cardiac function (% SS) in the above-described ischemic/reperfused region was continuously monitored throughout the protocol.
The animals were randomly grouped into two groups, one consisting of animals to be administered with 5-methyl-2-(1-piperazinyl)benzenesulfonic acid monohydrate (drug administration group; N=6) and the other of control group (N=6). […]

For assay [5], the system named is papillary muscle of the right ventricle. Kind of assay: Inhibition of the cardiotonic action of isoproterenol in isolated papillary muscle. Also noted: species or system guinea-pig. The note with it: Cavia porcellus, read-out: Inhibition (%) of developed tension increased by isoproterenol. On the procedure: For the evaluation of the extent of inhibiting overaccumulation of intracellular calcium ions, inhibition of the cardiotonic action of isoproterenol by the compounds described in Table 1 and Table 2 as mentioned above was measured.
That is to say, since isoproterenol has been known to cause calcium ions overload by excessive calcium ions influx into cardiac myocytes (Fleckenstein A., Janke J., Doring H., Leder O.; Recent advances in Studies on cardiac structure and metabolism, Myocardial Biology, Vol. 4, pp. 563-580 (1974)), the compounds which inhibit the action of isoproterenol can inhibit intracellular calcium ions overload.
The papillary muscle of the right ventricle isolated from male Hartley guinea-pigs (body weight: 250 to 350 g) was suspended in an organ bath filled with a nutrient solution (Krebs-Henseleit solution). The temperature of the nutrient solution was maintained at 32° C., and the solution was aerated with a gas mixture of 95% oxygen and 5% carbon dioxide. The papillary muscle was applied with a resting tension of about 0.5 g, and stimulated with platinum electrodes by a rectangular pulse of a duration of 1 msec, a frequency of 1 Hz and a voltage higher by 15% than the threshold value. The developed tension of the papillary muscle was measured through a tension transducer and recorded with a polygraph system. After the preparation was stabilized for about 90 minutes, isoproterenol ( 10^−3 to 10^−7 M) was added into the organ bath so that developed tension could be increased by 100% or more, and at the point when the maximum response was obtained, the compounds of the present invention were added into the organ bath, and % inhibition of the developed tension increased by isoproterenol was measured.

Molecules are shown by their SMILES.

These results are taken from US7652017B2, “Remedies and/or preventives for nervous system disorders” (Mitsubishi Tanabe Pharma Corporation, priority 1999, dated 2010).

A word on the inhibition: it is how much of the control response was suppressed.

T1 sequence (O46674 whole entry): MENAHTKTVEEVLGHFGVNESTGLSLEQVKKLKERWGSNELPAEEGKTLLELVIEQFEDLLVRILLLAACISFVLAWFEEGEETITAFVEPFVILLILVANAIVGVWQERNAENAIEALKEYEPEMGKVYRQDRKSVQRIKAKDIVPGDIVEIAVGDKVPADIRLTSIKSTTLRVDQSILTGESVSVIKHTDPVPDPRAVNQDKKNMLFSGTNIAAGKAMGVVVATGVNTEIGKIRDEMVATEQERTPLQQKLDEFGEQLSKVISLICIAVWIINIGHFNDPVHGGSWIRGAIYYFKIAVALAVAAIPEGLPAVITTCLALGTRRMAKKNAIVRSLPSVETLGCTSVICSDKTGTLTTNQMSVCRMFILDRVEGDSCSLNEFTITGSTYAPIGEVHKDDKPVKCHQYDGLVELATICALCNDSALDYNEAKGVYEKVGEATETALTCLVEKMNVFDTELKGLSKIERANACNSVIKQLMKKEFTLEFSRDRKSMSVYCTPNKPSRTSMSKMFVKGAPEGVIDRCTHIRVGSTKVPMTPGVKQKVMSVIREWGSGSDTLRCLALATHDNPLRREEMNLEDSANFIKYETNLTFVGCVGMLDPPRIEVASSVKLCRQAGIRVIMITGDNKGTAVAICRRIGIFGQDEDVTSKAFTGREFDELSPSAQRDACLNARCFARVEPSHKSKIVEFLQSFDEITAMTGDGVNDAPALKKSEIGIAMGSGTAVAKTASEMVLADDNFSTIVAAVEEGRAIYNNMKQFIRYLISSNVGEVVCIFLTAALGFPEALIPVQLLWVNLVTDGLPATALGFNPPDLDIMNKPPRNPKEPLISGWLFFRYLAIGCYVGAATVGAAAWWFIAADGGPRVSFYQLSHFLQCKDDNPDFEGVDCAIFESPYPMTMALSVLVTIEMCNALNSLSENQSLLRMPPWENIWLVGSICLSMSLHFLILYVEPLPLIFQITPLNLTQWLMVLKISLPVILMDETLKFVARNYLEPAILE

Regarding `Cc1ccc(N2CCNCC2)c(S(=O)(=O)O)c1.O` [5-methyl-2-(1-piperazinyl)benzenesulfonic acid monohydrate], the “calcium ion-ATPase activity of sarcoplasmic reticulum, post-ischemic region” value in assay [1] (calcium ion concentration 10 μM, dogs given 3 μg/kg i.v. before reperfusion, control 0.070±0.004, P<0.05) is given as 0.090±0.008 μmol Pi/mg min. Further, the “calcium ion-ATPase activity of sarcoplasmic reticulum, non-ischemic region” value in assay [1] (calcium ion concentration 10 μM, dogs given 3 μg/kg i.v. before reperfusion, control 0.089±0.009, no significant difference) stood at 0.088±0.006 μmol Pi/mg min. Moreover, the “number of hippocampus CA1 pyramidal cells (neuronal density)” value in assay [2] (0.1 mg/kg oral 30 min before 10-min ischemia, 72 h after recirculation, control 31.2±13.3, sham 166.0±6.7) is 74.3±16.0 per mm; in assay [2] (1 mg/kg oral 30 min before 10-min ischemia, 72 h after recirculation, P<0.05 vs control 31.2±13.3), 104.1±21.9 per mm. Besides, the “reaction latency in the retention trial” value in assay [3] (0.1 mg/kg oral, 48 h after 5-min ischemia, control 71.4±29.4, sham 206.1±29.4) was 97.7 ± 31.2 s; in assay [3] (1 mg/kg oral, 48 h after 5-min ischemia, control 71.4±29.4, sham 206.1±29.4), 139.0 ± 27.5 s. In addition, the “regional cardiac function (% SS) in post-reperfusion region compared to control group” value in assay [4] was “significantly improved”.
Consider `Cc1ccc(N2CCNCC2)c(S(=O)(=O)O)c1` [Compound 12, 5-methyl-2-(1-piperazinyl)benzenesulfonic acid], for which, in assay [5] (drug concentration 10^−3 M), the inhibition at 1000 µM amounted to 18.5%.
Take `CCCc1ccc(N2CCNCC2)c(S(=O)(=O)O)c1` [Compound 14, 5-n-propyl-2-(1-piperazinyl)benzenesulfonic acid]: the “number of hippocampus CA1 pyramidal cells (neuronal density)” value in assay [2] (0.03 mg/kg, P<0.01, control 71.3±10.3, sham 177.8±5.3) was determined as 125.1±5.7 per mm; in assay [2] (0.3 mg/kg, P<0.05, control 71.3±10.3, sham 177.8±5.3), 131.9±9.9 per mm. Moreover, the “reaction latency in the retention trial” value in assay [3] (0.03 mg/kg intravenous, 5-min ischemia, P<0.001, control 88.2±18.1, sham 243.5±31.6) was 253.4 ± 25.6 s; in assay [3] (0.3 mg/kg intravenous, 5-min ischemia, P<0.05, control 88.2±18.1, sham 243.5±31.6), 187.2 ± 36.1 s. Also, in assay [3] (every group (0.03 and 0.3 mg/kg intravenous, control, sham), no significant difference), the “reaction latency in the acquisition trial” value is reported as “about 20 seconds”. For the same compound, the inhibition at 100 µM in assay [5] (drug concentration 10^−4 M) came to 19.2%. For the same compound, in assay [5] (drug concentration 10^−5 M), the inhibition at 10 µM came out at 10.4%.
Turning to `C/C=C(/C)C(=O)O[C@H]1C(C)=C2[C@H]([C@@H]1OC(=O)CCCCCCC)[C@@](C)(OC(C)=O)C[C@H](OC(=O)CCC)[C@@]1(O)[C@H]2OC(=O)[C@@]1(C)O` [Thapsigargin, reference compound], the “inhibition of sarcoplasmic reticulum calcium ion-ATPase activity” value in assay [1] (1 μM added in vitro) is reported as “completely inhibited”.
